The values below come from patent publication US7820690B2, “Method of treating or inhibiting a non-digestive tract derived abdominal disorder associated with pain using a 5-HT, receptor antagonist” (Solvay Pharmaceuticals GmbH, priority 2004, dated 2010).

Like-named read-outs stand apart in the source and are kept apart here.

This assay concerns rats with cyclophosphamide-induced cystitis. Description: cystometry in rats with cyclophosphamide-induced cystitis. Particulars: for inhibition at 0.01 mg/kg / inhibition at 0.1 mg/kg: Rattus norvegicus, iv; for inhibition at 0.01 mg/kg: group 4, cilansetron 0.01 mg/kg i.v.; for inhibition at 0.1 mg/kg: group 5, cilansetron 0.1 mg/kg i.v. The assay is classed as in vivo, male Wistar rats. How it is done: In this test model, the effect of 5-HT3 receptor antagonists on rats with cyclophosphamide-induced cystitis was investigated.
Inflammation of the bladder responsible for bladder overactivity was induced by an intraperitoneal (i.p.) cyclophosphamide injection (150 mg/kg, i.p.) 48 hours before testing (Maggi et al., J Auton Nerv Syst 38 (1992) 201) using male Wistar rats weighing 300-350 g. The rats were anesthetized with urethane delivered subcutaneously in saline (1.2 g/kg), and their temperature was maintained at 37° C. Following a midline abdominal incision, a catheter was inserted through the bladder dome and sealed with a tie. The catheter was connected via a T-tube to a pressure transducer and a syringe pump, to allow filling of the bladder with warm (37° C.) saline at 50 μl/min simultaneously with recording of intravesical pressure. This catheter was later used for cystometry.
For each voiding and non-voiding contraction, the threshold pressure (ThP, corresponding to the bladder pressure at the onset of the voiding contraction (mm Hg)), the maximal voiding pressure (MP, defined by the maximal bladder pressure reached during voiding contraction (mm Hg)) the basal pressure (BaP, defined by the lowest bladder pressure reached after the voiding contraction (mm Hg)) and the area under the curve of the bladder pressure (AUP) during voiding (mm Hg×s) was calculated for each rat and averaged for each condition. In addition, the frequency of contractions was determined.
Test groups consisting of 10 rats each were used. Drug treatments were carried out as described in the following Table 1.
In groups 2 through 5, cystitis was induced by administration of cyclophosphamide 150 mg/kg intraperitoneally (i.p.) 48 hours before the experiment. Group 1 served as a control group. Drugs or vehicle to be tested were injected 10 minutes before the beginning of cystometry. Besides […] doses of cilansetron (groups 4-5), HOE140 (D-Arginyl-[Hyp3, Thi5, D-Tic7, Oic8]-bradykinin), a bradykinin 2 receptor antagonist, was used as a reference standard known to be active in this model. During the cystometry the pressure changes due to transvesical perfusion of warm saline at 50 μl/min were recorded over 60 minutes. Parameters (as outlined above) were analyzed for each bladder filling.

Where [1] appears, read: HOE140 130 μg/kg i.v., effect of treatment in cystitis rats.
Setting [2] is: group 3, cyclophosphamide cystitis + HOE140 130 μg/kg i.v.
[3] abbreviates: read-out: % inhibition of cystitis effects, basal pressure.
Setting [4] is: read-out: % inhibition of cystitis effects, frequency.
The mark [5] stands for this setting: read-out: % inhibition of cystitis effects, threshold pressure.
[6] abbreviates: group 4, cyclophosphamide cystitis + cilansetron 0.01 mg/kg i.v.
Where [7] appears, read: group 5, cyclophosphamide cystitis + cilansetron 0.1 mg/kg i.v.

As to “D-Arginyl-[Hyp3, Thi5, D-Tic7, Oic8]-bradykinin [HOE140]”, under setting [1], the “area under the curve of the bladder contractions” value was “not affected”, the first micturition volume entry is listed as “not affected” and the micturition pressure result was “not affected”. The “symptoms of bladder overactivity associated with cyclophosphamide pretreatment” value (acute treatment, HOE140 130 μg/kg) is recorded as “reduced the symptoms of bladder overactivity”. In addition, under “group 3, HOE140 130 μg/kg i.v.”, the “% inhibition of cystitis effects, basal pressure” value amounted to 50%; the “% inhibition of cystitis effects, frequency” value is recorded as 25%; the “% inhibition of cystitis effects, threshold pressure” value stood at 60%. Moreover, under setting [2], the “frequency of bladder contractions” value stood at 30 h⁻¹ and the threshold pressure came out at 17 mmHg. The basal pressure (group 3, cyclophosphamide cystitis + HOE140 130 μg/kg i.v., 10 minutes before cystometry) is 16 mmHg.

Usually inhibition stands for the share of the control response that was lost under treatment. Turning to `Cc1nccn1C[C@H]1CCc2c(c3cccc4c3n2CCC4)C1=O` [cilansetron, (R)-(−)-4,5,6,8,9,10-hexahydro-10-[(2-methyl-1H-imidazol-1-yl)methyl]-11H-pyrido-[3,2,1-jk]-carbazol-11-one], under setting [3], the inhibition at 0.01 mg/kg was 50% and the inhibition at 0.1 mg/kg came to 83%. For the same compound, under setting [4], the inhibition at 0.01 mg/kg was 45% and the inhibition at 0.1 mg/kg is 35%. Under setting [5], the inhibition at 0.01 mg/kg is 60% and the inhibition at 0.1 mg/kg came to 100%. In addition, the “effectiveness compared with reference compound HOE 140” value (cilansetron 0.01 mg/kg i.v.) is given as “similarly effective to, or even more effective than”. Also, the “symptoms of bladder overactivity associated with cyclophosphamide pretreatment” value (cilansetron 0.01 and 0.1 mg/kg, compared with HOE140) is recorded as “reduced these symptoms to an equivalent or slightly greater extent”. Further, the “beneficial effect compared with HOE140” value (cystometry in rats with cyclophosphamide-induced cystitis, overall conclusion) was “superior”. Further, under setting [6], the basal pressure was 16 mmHg, the “frequency of bladder contractions” value was found to be 26 h⁻¹ and the threshold pressure turned out to be 17 mmHg. In addition, under setting [7], the basal pressure was found to be 14 mmHg, the “frequency of bladder contractions” value is 28 h⁻¹ and the threshold pressure is 15 mmHg.
